Measurements reported in ChEMBL document CHEMBL6071124, “The search for pyruvate kinase-R activators; from a HTS screening hit via an impurity to the discovery of a lead series” (Bioorg Med Chem Lett, 2024).
pEC50: −log10 of the molar value. ≈ marks a conversion by molar mass, not a printed value.

Legend:
Pyruvate kinase PKLR [1] = biological target: T1, Pyruvate kinase PKLR (Homo sapiens, UniProt P30613); assay: Activation of PKR (unknown origin) by differential scanning fluorimetry analysis
Pyruvate kinase PKLR [2] = biological target: T1, Pyruvate kinase PKLR; assay: Activation of PKR (unknown origin)
[3] = Permeability of the compound across apical to basolateral side; format: ADME; settings: not told; read-out: permeability
[4] = AUC in rat at 10 mg/kg, po; format: ADME, organism-based; settings: in vivo
aromatase = biological target: T2, aromatase (Homo sapiens, UniProt P11511); assay: Inhibition of aromatase (unknown origin) at 10 uM relative to control
T2 sequence (P11511 whole entry): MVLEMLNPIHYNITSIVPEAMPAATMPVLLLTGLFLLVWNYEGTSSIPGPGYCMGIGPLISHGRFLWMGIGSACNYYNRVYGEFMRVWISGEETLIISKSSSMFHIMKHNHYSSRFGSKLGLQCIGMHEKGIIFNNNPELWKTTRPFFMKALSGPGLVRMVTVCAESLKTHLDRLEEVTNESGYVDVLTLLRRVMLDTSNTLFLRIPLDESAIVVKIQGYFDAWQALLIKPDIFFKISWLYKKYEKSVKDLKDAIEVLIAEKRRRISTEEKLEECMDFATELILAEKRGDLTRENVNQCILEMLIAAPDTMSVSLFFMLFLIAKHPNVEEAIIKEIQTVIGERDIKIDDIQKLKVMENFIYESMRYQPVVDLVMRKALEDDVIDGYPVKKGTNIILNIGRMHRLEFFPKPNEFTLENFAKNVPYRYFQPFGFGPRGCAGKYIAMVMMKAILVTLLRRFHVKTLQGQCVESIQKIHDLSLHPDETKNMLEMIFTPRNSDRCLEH

[5] = Solubility of the compound; format: physicochemical
[6] = Half life in rat at 10 mg/kg, po; format: ADME, organism-based; settings: in vivo
[7] = biological target: Voltage-gated inwardly rectifying potassium channel KCNH2 (Homo sapiens, UniProt Q12809); assay: Inhibition of human ERG at >50 uM; format: toxicity
[8] = Genotoxicity in Salmonella typhimurium; format: toxicity; settings: salmonella enterica subsp. enterica serovar typhimurium

T1 sequence (P30613 whole entry): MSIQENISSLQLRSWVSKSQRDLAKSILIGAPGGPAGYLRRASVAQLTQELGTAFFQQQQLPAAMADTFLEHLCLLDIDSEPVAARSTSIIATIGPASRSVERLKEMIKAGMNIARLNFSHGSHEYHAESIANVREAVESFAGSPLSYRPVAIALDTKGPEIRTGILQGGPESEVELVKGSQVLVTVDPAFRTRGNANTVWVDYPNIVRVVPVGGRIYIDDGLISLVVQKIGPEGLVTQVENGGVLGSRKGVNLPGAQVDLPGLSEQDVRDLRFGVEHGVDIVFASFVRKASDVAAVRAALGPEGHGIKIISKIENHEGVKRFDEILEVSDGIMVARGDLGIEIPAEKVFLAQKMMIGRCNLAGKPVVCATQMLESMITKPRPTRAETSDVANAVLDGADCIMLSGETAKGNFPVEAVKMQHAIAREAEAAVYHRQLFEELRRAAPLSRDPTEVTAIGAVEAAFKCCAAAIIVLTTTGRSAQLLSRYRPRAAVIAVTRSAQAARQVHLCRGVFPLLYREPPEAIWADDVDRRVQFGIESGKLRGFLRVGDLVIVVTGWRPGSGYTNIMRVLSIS
Voltage-gated inwardly rectifying potassium channel KCNH2, sequence (Q12809 whole entry): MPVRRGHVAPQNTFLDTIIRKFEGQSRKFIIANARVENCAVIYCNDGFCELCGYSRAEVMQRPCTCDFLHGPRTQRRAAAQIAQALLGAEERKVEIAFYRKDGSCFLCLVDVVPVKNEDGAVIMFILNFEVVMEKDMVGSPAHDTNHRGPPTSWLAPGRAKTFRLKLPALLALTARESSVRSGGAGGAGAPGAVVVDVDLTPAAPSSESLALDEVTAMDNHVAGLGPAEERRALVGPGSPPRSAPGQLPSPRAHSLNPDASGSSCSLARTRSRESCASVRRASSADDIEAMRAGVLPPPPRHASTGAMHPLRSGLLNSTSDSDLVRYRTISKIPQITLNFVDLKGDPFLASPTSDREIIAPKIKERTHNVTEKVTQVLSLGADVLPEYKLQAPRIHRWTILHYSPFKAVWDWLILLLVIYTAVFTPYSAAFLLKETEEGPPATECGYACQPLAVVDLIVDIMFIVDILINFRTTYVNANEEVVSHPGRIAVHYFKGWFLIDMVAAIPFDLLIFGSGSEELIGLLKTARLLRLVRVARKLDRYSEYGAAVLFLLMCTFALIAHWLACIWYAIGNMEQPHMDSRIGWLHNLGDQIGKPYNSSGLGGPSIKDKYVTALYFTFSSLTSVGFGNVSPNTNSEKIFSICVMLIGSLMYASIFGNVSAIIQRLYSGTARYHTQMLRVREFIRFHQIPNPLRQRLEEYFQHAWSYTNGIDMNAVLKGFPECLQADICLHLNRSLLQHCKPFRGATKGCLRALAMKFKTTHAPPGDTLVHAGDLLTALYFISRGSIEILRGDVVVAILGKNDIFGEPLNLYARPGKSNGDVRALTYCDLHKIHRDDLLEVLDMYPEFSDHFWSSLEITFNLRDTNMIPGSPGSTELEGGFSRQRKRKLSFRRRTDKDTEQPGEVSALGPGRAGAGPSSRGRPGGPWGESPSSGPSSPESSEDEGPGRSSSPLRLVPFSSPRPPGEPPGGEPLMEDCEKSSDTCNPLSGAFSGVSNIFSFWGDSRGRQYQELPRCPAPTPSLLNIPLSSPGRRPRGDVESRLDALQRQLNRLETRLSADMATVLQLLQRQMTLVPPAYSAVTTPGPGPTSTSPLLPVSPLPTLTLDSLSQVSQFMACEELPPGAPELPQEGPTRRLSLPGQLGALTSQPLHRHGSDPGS

In the case of `Cc1cnccc1CNC(=O)c1cc(COc2ccc3c(c2)OCO3)[nH]n1`, the pEC50 (Pyruvate kinase PKLR [1]) was 4.24.

For `Cc1ccc(-n2nnnc2CNC(=O)Nc2ccccc2)cc1C`, the pEC50 (Pyruvate kinase PKLR [2]) was 4.00.

`Cc1ccc(-n2nnnc2CNC(=O)NC2CCCCC2)cc1C` showed a pEC50 (Pyruvate kinase PKLR [2]) of 4.00.

For `O=C(NCc1nnnn1-c1ccc(Cl)cc1)Nc1cccs1`, the pEC50 (Pyruvate kinase PKLR [2]) was 4.00.

Compound `O=C(NCc1nnnn1-c1ccc(F)c(F)c1)Nc1cccs1` has a pEC50 (Pyruvate kinase PKLR [2]) of 4.00.

`Cc1nc(CNC(=O)NCc2ncnn2-c2ccc3cccnc3c2)n(-c2ccc(Cl)c(F)c2)n1` gave a Papp A→B [3] of 1.2 ×10⁻⁶ cm/s, an AUC [4] of 2.9 µM·h and an inhibition at 10 µM (aromatase) of 17%. For the same compound, the solubility [5] was 59 µM (≈ 29 µg/mL), the half-life [6] was 2.4 h and the “inhibition (INH)” value [7] was “Not Active”. For the same compound, the Activity [8] was “Non-Toxic”.
